The values that follow come from PubChem BioAssay AID328 (DTP/NCI, 2004).

For this assay, the system named is BDF1 mice, P388 leukemia ip, median survival T/C. Kind of assay: NCI In Vivo Anticancer Drug Screen. Data for tumor model P388 Leukemia (intraperitoneal) in B6D2F1 (BDF1) mice. The settings on record: endpoint: median survival time, higher = longer survival. The procedure, abridged: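 Transplantable tumour in mice; compound vs vehicle dosing; survival scored; ratio of treated to control reported.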

[1] abbreviates: dose: 12.5 mg/kg/injection, schedule: Q01DX009 (ip), vehicle: saline.
Where [2] appears, read: dose: 100.0 mg/kg/injection, schedule: Q04DX003 (ip), vehicle: saline.
Setting [3] is: dose: 50.0 mg/kg/injection, schedule: Q01DX009 (ip), vehicle: saline with Tween-80.
[4] abbreviates: dose: 100.0 mg/kg/injection, schedule: Q01DX009 (ip), vehicle: saline with Tween-80.
[5] abbreviates: dose: 25.0 mg/kg/injection, schedule: Q01DX009 (ip), vehicle: saline with Tween-80.
Setting [6] is: dose: 50.0 mg/kg/injection, schedule: Q04DX003 (ip), vehicle: saline with Tween-80.

Structures are written as SMILES. Several values for one entry are separate records, joined by “and”; a condition that tells them apart may be missing. Equal values may be shown once. Inconclusive results and toxic doses are left out.

For the molecule `C1CN(P2(N3CC3)=NP(N3CC3)(N3CC3)=NP(N3CC3)(N3CC3)=N2)CCO1` (configuration not stated), the T/C (dose: 6.25 mg/kg/injection, schedule: Q01DX009 (ip), vehicle: saline) was 167 % of control and 195 % of control; the T/C under setting [1] is 227 % of control and 200 % of control; the T/C (dose: 25.0 mg/kg/injection, schedule: Q01DX009 (ip), vehicle: saline) is 260 % of control and 155 % of control.

Consider `COC(=O)C1(C)CCC(c2ccc(OC)cc2)C(CC(=O)O)C1=O` (configuration not stated), for which the T/C reads like this: (dose: 100.0 mg/kg/injection, schedule: Q01DX009 (ip), vehicle: saline) 95 % of control; under setting [2], 100 % of control; (dose: 200.0 mg/kg/injection, schedule: Q01DX009 (ip), vehicle: saline) 104 % of control; (dose: 200.0 mg/kg/injection, schedule: Q04DX003 (ip), vehicle: saline) 119 % of control; (dose: 400.0 mg/kg/injection, schedule: Q01DX009 (ip), vehicle: saline) 109 % of control; (dose: 400.0 mg/kg/injection, schedule: Q04DX003 (ip), vehicle: saline) 96 % of control.

Take `CC1CCC2=C(C1)S(=O)(=O)CC2` (configuration not stated): the T/C reads like this: (dose: 6.25 mg/kg/injection, schedule: Q04DX002 (ip), vehicle: saline) 103 % of control; (dose: 12.5 mg/kg/injection, schedule: Q04DX002 (ip), vehicle: saline) 94 % of control; (dose: 25.0 mg/kg/injection, schedule: Q04DX002 (ip), vehicle: saline) 103 % of control.

`CCCCCC1(O)C2CCCC1CCC2` (configuration not stated): the T/C runs as follows: (dose: 50.0 mg/kg/injection, schedule: Q01DX001 (ip), vehicle: saline sonified) 105 % of control; (dose: 50.0 mg/kg/injection, schedule: Q01DX001 (ip), vehicle: suspension in saline) 98 % of control; (dose: 100.0 mg/kg/injection, schedule: Q01DX001 (ip), vehicle: saline sonified) 105 % of control; (dose: 100.0 mg/kg/injection, schedule: Q01DX001 (ip), vehicle: suspension in saline) 104 % of control; (dose: 200.0 mg/kg/injection, schedule: Q01DX001 (ip), vehicle: suspension in saline) 107 % of control.

On to `O=C(OC1(c2ccccc2)CCC1)c1cc([N+](=O)[O-])cc([N+](=O)[O-])c1`, for which the T/C reads like this: (dose: 100.0 mg/kg/injection, schedule: Q01DX001 (ip), vehicle: saline with Tween-80) 97 % of control; (dose: 200.0 mg/kg/injection, schedule: Q01DX001 (ip), vehicle: saline with Tween-80) 96 % of control; (dose: 400.0 mg/kg/injection, schedule: Q01DX001 (ip), vehicle: saline with Tween-80) 99 % of control.

In the case of `O=S(=O)(O)O`, the T/C runs as follows: (dose: 6.25 mg/kg/injection, schedule: Q01DX009 (ip), vehicle: water) 90 % of control; (dose: 12.5 mg/kg/injection, schedule: Q01DX009 (ip), vehicle: saline with Tween-80) 124 % of control; (dose: 12.5 mg/kg/injection, schedule: Q01DX009 (ip), vehicle: water) 100 % of control; (dose: 25.0 mg/kg/injection, schedule: Q04DX003 (ip), vehicle: water) 90 % of control; (dose: 100.0 mg/kg/injection, schedule: Q04DX003 (ip), vehicle: water) 90 % of control.

In the case of `CCOc1cccc(/C=N/n2c(-c3ccccc3Cl)nc3ccccc3c2=O)c1O`, the T/C is 90 % of control under setting [3] and 87 % of control under setting [4].

With `CC(=O)Nc1ccc([I+]c2ccc([N+](=O)[O-])cc2)cc1`, the T/C reads like this: (dose: 12.5 mg/kg/injection, schedule: Q01DX009 (ip), vehicle: Klucel (hydroxypropylcellulose) (HPC)) 99 % of control; (dose: 25.0 mg/kg/injection, schedule: Q01DX009 (ip), vehicle: Klucel (hydroxypropylcellulose) (HPC)) 101 % of control; under setting [5], 119 % of control; (dose: 75.0 mg/kg/injection, schedule: Q01DX009 (ip), vehicle: saline with Tween-80) 116 % of control; (dose: 100.0 mg/kg/injection, schedule: Q01DX009 (ip), vehicle: Klucel (hydroxypropylcellulose) (HPC)) 118 % of control; under setting [4], 115 % of control.

Take `CC(=O)Oc1cc(OCCCc2ccc(F)cc2)cc2ccc3ccccc3c12`: the T/C is 99 % of control (dose: 25.0 mg/kg/injection, schedule: Q04DX002 (ip), vehicle: saline with Tween-80); 98 % of control (dose: 50.0 mg/kg/injection, schedule: Q04DX002 (ip), vehicle: saline with Tween-80); 90 % of control (dose: 100.0 mg/kg/injection, schedule: Q04DX002 (ip), vehicle: saline with Tween-80).

Regarding `CCCCCCCCOP(=O)(N1CC1C)N1CC1C` (configuration not stated), the T/C under setting [2] was 154 % of control.

With `O=C(CC(c1ccccc1)N1CCN(c2ccccc2)CC1)c1ccccc1` (configuration not stated), the T/C (dose: 100.0 mg/kg/injection, schedule: Q04DX003 (ip), vehicle: Klucel (hydroxypropylcellulose) (HPC)) is 100 % of control; the T/C (dose: 200.0 mg/kg/injection, schedule: Q04DX003 (ip), vehicle: Klucel (hydroxypropylcellulose) (HPC)) was 100 % of control; the T/C (dose: 400.0 mg/kg/injection, schedule: Q04DX003 (ip), vehicle: Klucel (hydroxypropylcellulose) (HPC)) is 100 % of control.

On to `FC(F)(F)c1nnn[n-]1.[Au+].c1ccc([PH+](c2ccccc2)c2ccccc2)cc1`, for which the T/C is 100 % of control (dose: 25.0 mg/kg/injection, schedule: Q01DX001 (ip), vehicle: saline with Tween-80) and 102 % of control (dose: 50.0 mg/kg/injection, schedule: Q01DX001 (ip), vehicle: saline with Tween-80).

For the molecule `CC(C)(C)NC1=NCCO1`, the T/C under setting [5] is 100 % of control, the T/C under setting [3] was 100 % of control and the T/C under setting [4] was 100 % of control.

With `CN(C)c1ccc(/C=C/c2ccc3ccccc3[n+]2C)cc1`, the T/C under setting [1] was 88 % of control.

As to `O=[N+]([O-])c1cccc(N2CN(c3ccccc3)NC(c3ccccc3)=N2)c1`, the T/C runs as follows: (dose: 12.5 mg/kg/injection, schedule: Q04DX003 (ip), vehicle: saline with Tween-80) 100 % of control; (dose: 25.0 mg/kg/injection, schedule: Q04DX003 (ip), vehicle: saline with Tween-80) 96 % of control; under setting [6], 105 % of control.

Consider `O=Cc1ccc2c(c1)OCCOCCOCCOCCO2`, for which the T/C was 104 % of control under setting [3]; 121 % of control under setting [4]; 117 % of control (dose: 200.0 mg/kg/injection, schedule: Q01DX009 (ip), vehicle: saline with Tween-80).

Take `Nc1ccn(C2CC(O)C(CO)O2)c(=O)n1` (configuration not stated): the T/C (dose: 2.3 mg/kg/injection, schedule: Q01DX009 (ip), vehicle: water) is 117 % of control; the T/C (dose: 9.37 mg/kg/injection, schedule: Q01DX009 (ip), vehicle: water) was 117 % of control; the T/C (dose: 18.75 mg/kg/injection, schedule: Q01DX009 (ip), vehicle: water) was 110 % of control.

Consider `Nc1nc(N)c2cc(S(=O)(=O)c3ccccc3)ccc2n1`, for which, under setting [3], the T/C is 92 % of control.

For `C=CCCCCCCCCCCCCCCCC` (tested in a mixture with another compound), the T/C (dose: 50.0 mg/kg/injection, schedule: Q01DX009 (ip), vehicle: other) was 113 % of control.

On to `CC(Cc1ccc(O)c(O)c1)C(C)Cc1ccc(O)c(O)c1` (configuration not stated), for which the T/C (dose: 50.0 mg/kg/injection, schedule: Q01DX010 (ip), vehicle: saline) was 100 % of control; the T/C (dose: 100.0 mg/kg/injection, schedule: Q01DX010 (ip), vehicle: saline) was 104 % of control; the T/C (dose: 200.0 mg/kg/injection, schedule: Q01DX010 (ip), vehicle: saline) was 104 % of control.

Consider `O=c1[nH]cnc2c1nc1n2CCC1`, for which the T/C was 90 % of control under setting [6]; 90 % of control (dose: 100.0 mg/kg/injection, schedule: Q04DX003 (ip), vehicle: saline with Tween-80); 113 % of control (dose: 200.0 mg/kg/injection, schedule: Q04DX003 (ip), vehicle: saline with Tween-80).

Consider `COC(C(=O)C(O)C(C)O)C1Cc2cc3cc(OC4CC(OC5CC(O)C(O)C(C)O5)C(O)C(C)O4)c(C)c(O)c3c(O)c2C(=O)C1OC1CC(OC2CC(O)C(OC3CC(C)(O)C(O)C(C)O3)C(C)O2)C(O)C(C)O1` (configuration not stated), for which the T/C reads like this: (dose: 0.03 mg/kg/injection, schedule: Q01DX009 (ip), vehicle: saline) 101 % of control; (dose: 0.06 mg/kg/injection, schedule: Q01DX009 (ip), vehicle: saline) 106 % of control; (dose: 0.13 mg/kg/injection, schedule: Q04DX003 (ip), vehicle: saline) 98 % of control; (dose: 0.25 mg/kg/injection, schedule: Q01DX009 (ip), vehicle: saline) 150 % of control; (dose: 0.25 mg/kg/injection, schedule: Q04DX003 (ip), vehicle: saline) 107 % of control; (dose: 0.5 mg/kg/injection, schedule: Q01DX009 (ip), vehicle: saline) 170 % of control. In addition, the T/C runs as follows: (dose: 0.5 mg/kg/injection, schedule: Q04DX003 (ip), vehicle: saline) 101 % of control; (dose: 1.0 mg/kg/injection, schedule: Q01DX009 (ip), vehicle: saline) 120 % of control.

As to `NNC(=O)C(=O)NCc1ccco1`, under setting [3], the T/C is 98 % of control.
